The values that follow come from patent US20160213742A1, “COMPOSITIONS AND METHODS FOR THE TREATMENT OF FUNGAL INFECTIONS” (priority 2013, published 2016).

In brackets after ≈: the same amount, converted by molar mass.

Holding throughout (assay type): cell-based
For assay [1], the system named is C. albicans ATCC 90028. In words: microbe, parasite or virus in culture. Particulars: ATCC 90028, pH 7. On the procedure: (§1) The test organisms consisted of strains from the Micromyx collection. Reference isolates were originally received from the American Type Culture Collection (ATCC; Manassas, Va.). Organisms received at Micromyx were initially streaked for isolation on Sabouraud dextrose or potato dextrose agar. Colonies were picked by swab from the medium and resuspended in the appropriate broth containing cryoprotectant. The suspensions were aliquoted into cryogenic vials and maintained at −80° C. Prior to testing, Candida isolates were streaked from the frozen vials on Sabouraud dextrose agar. The yeast isolates were incubated at overnight at 35° C. before use. The fungal isolates were incubated at least 7 days on Sabouraud dextrose agar slants at 35° C. before harvesting.
(§2) Isolates were tested in RPMI medium (Catalog No. SH30011.04; Lot No. AWA92121B; HyClone Labs, Logan, Utah) which was prepared according to CLSI guidelines. The pH of the medium was adjusted to 7.0 with 1 N NaOH. The medium was sterile filtered using a 0.2 μm PES filter and stored at 4° C. until used.
(§3) The MIC assay method employed automated liquid handlers to conduct serial dilutions and liquid transfers. Automated liquid handlers included the Multidrop 384 (Labsystems, Helsinki, Finland), Biomek 2000 and Biomek FX (Beckman Coulter, Fullerton Calif.). The wells in columns 2-12 in standard 96-well microdilution plates (Costar 3795) were filled with 150 μl of the correct diluent (50% DMSO for investigational compounds, 100% DMSO for comparator compounds). These would become the mother plates' from which ‘daughter’ or test plates would be prepared. Stocks were diluted to 40× the desired top concentration in the test plates in the indicated solvent, and 300 μL of the 40× stock was dispensed into the appropriate well in Column 1 of the mother plates. The Biomek 2000 was used to make serial serial 2-fold dilutions through Column 11 in the “mother plate”. The wells of Column 12 contained no drug and served as the organism growth control wells.
(§4) The daughter plates were loaded with 185 μL per well of RPMI described above using the Multidrop 384. The daughter plates were prepared using the Biomek FX which transferred 5 μL of drug solution from each well of a mother plate to the corresponding well of the daughter plate in a single step.
(§5) A standardized inoculum of each organism was prepared. For Candida, colonies were picked from the streak plate and a suspension was prepared in RPMI medium equal to a 0.5 McFarland standard, then diluted 1:100 in RPMI and transferred to compartments of sterile reservoirs divided by length (Beckman Coulter). For the Aspergillus isolates, previously prepared and quantitated suspensions were used to make dilutions in RPMI to reach 20× the final concentration. These dilutions were also transferred to compartments of sterile reservoirs divided by length (Beckman Coulter). The final concentration of the Aspergillus isolates was approximately 0.2-2.5×10^4 CFU/mL.
(§6) The Biomek 2000 was used to inoculate the plates. Daughter plates were placed on the Biomek 2000 work surface reversed so that inoculation took place from low to high drug concentration. The Biomek 2000 delivered 10 μL of standardized inoculum into each well. Thus, the wells of the daughter plates ultimately contained 185 μL of RPMI, 5 μL of drug solution, and 10 μL of inoculum. The final concentration of DMSO in the test well was 2.5% for the evaluated comparators and 1.25% for the investigational agents.
(§7) Plates were stacked 3 high, covered with a lid on the top plate, placed into plastic bags, and incubated at 35° C. for approximately 24-48 hr prior to reading. Plates were read when inoculum was confluent in growth wells. Plates were viewed from the bottom using a plate viewer. […] MICs were read where visible growth of the organism was inhibited. MECs were read where the growth shifted to a small, rounded, compact hyphal form as compared to the hyphal growth seen in the growth control well.

Assay [2] deals with C. glabrata ATCC 90030. In words: microbe, parasite or virus in culture. Particulars: ATCC 90030, pH 7. The procedure: as §1, §2, §3, §4, §5, §6, §7
Assay [3] deals with C. krusei ATCC 14243. The assay is described as follows: microbe, parasite or virus in culture. Conditions: ATCC 14243, pH 7. On the procedure:
as §1, §2, §3, §4, §5, §6, §7

Assay [4] has as its system C. parapsilosis ATCC 22019. In words: microbe, parasite or virus in culture. Conditions: ATCC 22019, pH 7. On the procedure: as §1, §2, §3, §4, §5, §6, §7
The subject of assay [5] is A. flavus MX 5948. In words: MEC assay (Example 31). Particulars: RPMI pH 7.0, 35° C., 24-48 hr. The procedure:
as §1, §2, §3, §4, §5, §6, §7

For assay [6], the system named is A. fumigatus ATCC 13073. In words: MEC assay (Example 31). Particulars: RPMI pH 7.0, 35° C., 24-48 hr. On the procedure:
as §1, §2, §3, §4, §5, §6, §7

For assay [7], the system named is A. fumigatus MX 5944. In words: MEC assay (Example 31). Particulars: RPMI pH 7.0, 35° C., 24-48 hr. The procedure:
as §1, §2, §3, §4, §5, §6, §7

For assay [8], the system named is A. fumigatus MYA-3626. The assay is described as follows: MEC assay (Example 31). Particulars: RPMI pH 7.0, 35° C., 24-48 hr. On the procedure:
as §1, §2, §3, §4, §5, §6, §7

Assay [9] has as its system A. fumigatus MYA-4609. In words: MEC assay (Example 31). Conditions: RPMI pH 7.0, 35° C., 24-48 hr. On the procedure: as §1, §2, §3, §4, §5, §6, §7
Assay [10] relates to Neutrophils purified from human peripheral blood. The assay is described as follows: Human Neutrophil Transwell Migration Assay. Particulars: 37° C., 45 minutes, % of the maximum migration possible. From the text:
Neutrophils were purified from human peripheral blood utilizing PolymorphPrep. Red blood cells were lysed with a lysis buffer and the cells were washed, counted and resuspended in assay buffer. Neutrophils (approximately 50,000 to 100,000 in number) were placed over 5-micon pore sized transwell plates in 24-well format with test compounds in the bottom chamber of each well. A negative control of media alone in the bottom chamber was set up in triplicate. A positive control where the neutrophils were added directly to the bottom well was set up in triplicate.
The plates were incubated at 37° C. for 45 minutes to allow for migration. After this time, migration was confirmed visually and then an aliquot (⅙^th of total cells) from each well was taken for ATP detection via luminescence with ATPlite (PerkinElmer) to quantify the number of migrated cells. The averaged reading for random migration detected in the negative control was subtracted from all readings to obtain the corrected migration number. These numbers were then divided by the averaged reading from the positive control to get the % Neutrophil Migration of the maximum migration possible.

Consider `CC[C@H](C)C[C@H](C)CCCCCCCCC(=O)N[C@H]1C[C@@H](O)[C@@H](NCCNC(=O)CCNC(=O)[C@H](Cc2ccccc2)NC(=O)[C@H](CC(C)C)NC(=O)[C@H](CCSC)NC=O)NC(=O)[C@@H]2[C@@H](O)CCN2C(=O)[C@H]([C@H](O)CCN)NC(=O)[C@H]([C@H](O)[C@@H](O)c2ccc(O)cc2)NC(=O)[C@@H]2C[C@@H](O)CN2C(=O)[C@H]([C@@H](C)O)NC1=O` [Compound 4], for which the MIC in assay [1] was 2 µg/mL (≈ 1.26 µM); in [2], 4 µg/mL (≈ 2.53 µM); in [3] it was 8 µg/mL (≈ 5.05 µM); in assay [4], 32 µg/mL (≈ 20.2 µM). Further, the MEC was 1 µg/mL in assay [5]; 1 µg/mL in assay [6]; 1 µg/mL in assay [7]; 2 µg/mL in assay [8]; 1 µg/mL in [9]. Further, the “% Neutrophil Migration” value in assay [10] (conc 0.001 μg/mL) is recorded as 3.8%; in [10] (conc 0.01 μg/mL), 88.0%; in [10] (conc 0.1 μg/mL), 15.1%; in [10] (conc 1 μg/mL), −9.8%; in assay [10] (conc 10 μg/mL), −11.2%.
Turning to `CC[C@H](C)C[C@H](C)CCCCCCCCC(=O)N[C@H]1C[C@@H](O)[C@@H](NCCN)NC(=O)[C@@H]2[C@@H](O)CCN2C(=O)[C@H]([C@H](O)CCNC(=O)[C@H](CCCCN)NC(=O)[C@H](Cc2ccccc2)NC(=O)[C@H](CC(C)C)NC(=O)[C@H](CCSC)NC=O)NC(=O)[C@H]([C@H](O)[C@@H](O)c2ccc(O)cc2)NC(=O)[C@@H]2C[C@@H](O)CN2C(=O)[C@H]([C@@H](C)O)NC1=O` [Compound 14], the MIC came out at 2 µg/mL (≈ 1.22 µM) in assay [1], 16 µg/mL (≈ 9.75 µM) in [2], 16 µg/mL (≈ 9.75 µM) in assay [3] and 16 µg/mL (≈ 9.75 µM) in assay [4]. The MEC in [5] was determined as 0.12 µg/mL; in assay [6] it was 0.25 µg/mL; in [7] it was 0.12 µg/mL; in [8], 0.25 µg/mL; in [9], 0.12 µg/mL. Moreover, the “% Neutrophil Migration” value was 0.9% in assay [10] (conc 0.001 μg/mL); 1.9% in [10] (conc 0.01 μg/mL); 14.8% in [10] (conc 0.1 μg/mL); 21.4% in [10] (conc 1 μg/mL); −9.0% in assay [10] (conc 10 μg/mL).
As for `CC[C@H](C)C[C@H](C)CCCCCCCCC(=O)N[C@H]1C[C@@H](O)[C@@H](NCCN)NC(=O)[C@@H]2[C@@H](O)CCN2C(=O)[C@H]([C@H](O)CCNC(=O)[C@@H](N)CCCCNC(=O)[C@H](Cc2ccccc2)NC(=O)[C@H](CC(C)C)NC(=O)[C@H](CCSC)NC=O)NC(=O)[C@H]([C@H](O)[C@@H](O)c2ccc(O)cc2)NC(=O)[C@@H]2C[C@@H](O)CN2C(=O)[C@H]([C@@H](C)O)NC1=O` [Compound 15], the MIC in [1] stood at 1 µg/mL (≈ 0.609 µM); in assay [2] it was 2 µg/mL (≈ 1.22 µM); in assay [3] it was 8 µg/mL (≈ 4.87 µM); in assay [4] it was 16 µg/mL (≈ 9.75 µM). The MEC in assay [5], in assay [6], in assay [7], in assay [8] and in assay [9] was 0.12 µg/mL each time. Further, the “% Neutrophil Migration” value is 9.6% in assay [10] (conc 0.001 μg/mL); 47.3% in assay [10] (conc 0.01 μg/mL); 13.0% in [10] (conc 0.1 μg/mL); −6.3% in assay [10] (conc 1 μg/mL); −7.0% in [10] (conc 10 μg/mL).
For `CC[C@H](C)C[C@H](C)CCCCCCCCC(=O)N[C@H]1C[C@@H](O)[C@@H](NCCN)NC(=O)[C@@H]2[C@@H](O)CCN2C(=O)[C@H]([C@H](O)CCNC(=O)[C@H](CCSC)NC=O)NC(=O)[C@H]([C@H](O)[C@@H](O)c2ccc(O)cc2)NC(=O)[C@@H]2C[C@@H](O)CN2C(=O)[C@H]([C@@H](C)O)NC1=O` [Compound 26], the MIC in assay [1] came to 0.25 µg/mL (≈ 0.2 µM); in assay [2], 1 µg/mL (≈ 0.798 µM); in assay [3], 4 µg/mL (≈ 3.19 µM); in assay [4] it was 4 µg/mL (≈ 3.19 µM). The MEC result in assay [5], in [6], in assay [7], in [8] and in [9] was “≦0.03 μg/mL” throughout. Moreover, the “% Neutrophil Migration” value in [10] (conc 0.001 μg/mL) is reported as −3.4%; in assay [10] (conc 0.01 μg/mL) it was −3.4%; in assay [10] (conc 0.1 μg/mL), −5.1%; in assay [10] (conc 1 μg/mL), −4.1%; in [10] (conc 10 μg/mL), 15.7%.
Turning to `CC[C@H](C)C[C@H](C)CCCCCCCCC(=O)N[C@H]1C[C@@H](O)[C@@H](NCCN)NC(=O)[C@@H]2[C@@H](O)CCN2C(=O)[C@H]([C@H](O)CCNC(=O)[C@H](CC(C)C)NC(=O)[C@H](CCSC)NC=O)NC(=O)[C@H]([C@H](O)[C@@H](O)c2ccc(O)cc2)NC(=O)[C@@H]2C[C@@H](O)CN2C(=O)[C@H]([C@@H](C)O)NC1=O` [Compound 27], the MIC turned out to be 2 µg/mL (≈ 1.46 µM) in assay [1], 2 µg/mL (≈ 1.46 µM) in assay [2], 8 µg/mL (≈ 5.86 µM) in assay [3] and 16 µg/mL (≈ 11.7 µM) in [4]. Also, the MEC in assay [5] is 0.06 µg/mL; in [6], 8 µg/mL; in assay [7], 0.12 µg/mL; in [8] it was 0.25 µg/mL; in assay [9], 0.12 µg/mL. Moreover, the “% Neutrophil Migration” value in [10] (conc 0.001 μg/mL) is −1.6%; in assay [10] (conc 0.01 μg/mL), 3.4%; in [10] (conc 0.1 μg/mL), −4.2%; in assay [10] (conc 1 μg/mL) it was −1.6%; in [10] (conc 10 μg/mL), 37.0%.
